Read-outs that look alike come from different tables or passages of the source.

In one series the test system is HepG2 cells. The following applies: 2 h, CCK-8, mean ± SD. The procedure:
HepG2 cells were cultured in 96-well plates at a density of 5 × 10^4 cells/mL for 24 h. After the medium was removed, 100 µL of complete medium containing different concentrations of H2O2 (800, 1000, 1200, 1400, 1600 µM) was added and incubated for 2 h. After the medium was discarded, cell viability was determined using the CCK-8 assay to establish the optimal H2O2 concentration for inducing an oxidative stress model. The cells without H2O2 treatment were used as control group.

The subject of series [1] is H2O2-induced HepG2 cells. Nature of the series: CAT activity in H2O2-induced HepG2 cells (kit). In kind it is cell-based. The following applies: for activity of CAT compared with the model group: peptide pretreatment, H2O2-induced HepG2 cells, p < 0.05. The procedure:
(§1) After the medium was discarded, 100 μL peptides of different concentrations were added to the wells and cultured for an additional 24 h. After discarding the medium and then being washed, the cells were incubated with 100 μL of an appropriate concentration of H2O2. After incubation for 2 h, the supernatant was collected, and the content of IL-8 was determined strictly, according to the kit instructions. Afterwards, the cells were washed twice with PBS, and then the cell viability was measured. Alternatively, the cells were disrupted with 300 μL of cell lysate and centrifuged at 6000× g at 4 °C for 15 min. The supernatant was collected and stored at −80 °C. The protein concentration was determined using the Bio-Rad DC analysis with BSA as the standard curve. In addition, the contents of SOD, CAT, and MDA in cell lysates were determined in strict accordance with the kit instructions.

For series [2], the system named is H2O2-induced HepG2 cells. Nature of the series: IL-8 content in H2O2-induced HepG2 cells (ELISA kit). It counts as cell-based. The following applies: peptide pretreatment 24 h, then 1.4 mM H2O2 2 h; supernatant; p < 0.05; model group 154.02 ± 2.80 pg/mL. The method, then:
as §1
Background: An ELISA detects its analyte on a solid surface through an enzyme-linked reagent.

The nature of series [3]: ABTS radical scavenging activity. It counts as biochemical. To be noted: 40 μL sample + 160 μL ABTS working solution, 10 min dark, room temperature, absorbance 734 nm; sample concentration not given; mean ± SD, at least three repeats. The procedure: Slightly modified according to the previous method, 7.4 mmol/L ABTS solution was mixed with the 2.6 mmol/L K2S2O8 solution in equal volume, and then was kept in the dark for 16 h. The ABTS working solution was obtained when the mixture was subsequently diluted with anhydrous ethanol to adjust the absorbance to a range of 0.70 ± 0.02 at 734 nm. Then, the sample solution of 40 μL was mixed with 160 μL ABTS working solution and reacted at room temperature for 10 min in the dark on 96 microporous plates. Meanwhile, the sample was replaced with distilled water as the blank. The absorbance was measured at 734 nm, and the ABTS radical scavenging rate of samples was calculated using the formula below.(2) ABTS radical scavenging rate(%)=[…], where A0 and A1 represented the absorbance values of the blank and sample groups.

Series [4] has as its system H2O2-induced HepG2 cells. Nature of the series: SOD activity in H2O2-induced HepG2 cells (kit). It counts as cell-based. The following applies: for activity of SOD compared with the model group: peptide pretreatment, H2O2-induced HepG2 cells, p < 0.05. The procedure: as §1
Series [5] can be described thus: Hydroxyl radical scavenging activity. In kind it is biochemical. The following applies: salicylic acid / FeSO4 / H2O2 6.0 mmol/L, 37 °C, 0.5 h, absorbance 510 nm; sample concentration not given; mean ± SD, at least three repeats. The method, then:
The hydroxyl radical scavenging activities of samples were performed as in the previous method with slight modifications. Briefly, 6.0 mmol/L salicylic acid solution and FeSO4 solution were prepared, and 0.5 mL of each solution was added into a reaction tube, followed by the addition of a 0.5 mL sample solution and a 0.5 mL H2O2 solution of 6.0 mmol/L. After mixing, the reaction was conducted in a 37 °C water bath for 0.5 h, and then the absorbance was measured at 510 nm. Meanwhile, the sample was replaced with distilled water and used as the blank group, and H2O2 was replaced with distilled water and used as the control group. The hydroxyl radical scavenging rate of the sample was calculated according to the formula below.(3) hydroxyl radical scavenging rate(%)=(1-A0−A1/A)×100, where A0, A1, and A represented the absorbance values of the sample group, blank group, and control group, respectively.

Series [6] deals with H2O2-induced HepG2 cells. Nature of the series: MDA content in H2O2-induced HepG2 cells (kit). It counts as cell-based. To be noted: peptide pretreatment 24 h, then 1.4 mM H2O2 2 h; cell lysate; mean ± SD; model group 10.31 ± 0.23. The method, then:
as §1

Series [7] is described as follows: DPPH radical scavenging activity. The following applies: 100 μL sample + 100 μL 0.1 mmol/L DPPH in anhydrous ethanol, 30 min dark, room temperature, absorbance 517 nm; sample concentration not given; mean ± SD, at least three repeats. It counts as biochemical. The method, then: Slightly modified according to the previous method, the 100 μL sample solution was mixed with 100 μL 0.1 mmol/L DPPH anhydrous ethanol solution and reacted in the dark at room temperature for 30 min. Then the absorbance was measured at 517 nm. The DPPH free radical scavenging rate of the sample was calculated by the formula below.(1) DPPH radical scavenging rate(%)=(1−A1−A2/A0)×100, where A1 represented the absorbance value the sample reaction with DPPH anhydrous ethanol solution; A2 represented the absorbance value of the sample’s reaction with anhydrous ethanol solution; A0 represented the absorbance of the reaction mixture solution without the sample.
A general note: DPPH is a stable violet radical that fades when it is reduced.

As usually defined, the cell viability is a per cent measure of how many cells are alive, often set against a control. A low value points to more harm to the cells. With `OO` [H2O2, hydrogen peroxide], the cell viability with HepG2 cells (H2O2 0.8 µM) turned out to be 91.77 ± 4.53%; with HepG2 cells (H2O2 1.6 mM), 37.01 ± 3.20%. The compound further gave a cell survival rate in the series on HepG2 cells (H2O2 1.4 mM) of 51.29 ± 3.06%.
With “FGFDGDF [Phe-Gly-Phe-Asp-Gly-Asp-Phe, antioxidant peptide identified from yak skin hydrolysate YSP-I, synthesized]”, the “activity of CAT in cells” value with H2O2-induced HepG2 cells [1] (peptide pretreatment 24 h, then 1.4 mM H2O2 2 h, cell lysate, mean ± SD, model group 26.01 ± 1.78, control 60.80 ± 1.10) is on record as 47.49 ± 1.14 U/mg prot. The “activity of CAT compared with the model group” value in the series with H2O2-induced HepG2 cells [1] was “significantly more improved”. For the same compound, the “intracellular IL-8 content compared with the model group” value with H2O2-induced HepG2 cells [2] was “significantly reduced”. Moreover, the “ABTS radical scavenging rate” value in series [3] is given as 19.15% ± 1.59%. Further, the “activity of SOD in cells” value in the series on H2O2-induced HepG2 cells [4] (peptide pretreatment 24 h, then 1.4 mM H2O2 2 h, cell lysate, mean ± SD, model group 6.17 ± 0.41, control 14.35 ± 0.06) was determined as 11.83 ± 0.16 U/mg prot. Moreover, in the series with H2O2-induced HepG2 cells [4], the “activity of SOD compared with the model group” value is “significantly more improved”. Also, in series [5], the “hydroxyl radical scavenging rate” value was 44.44% ± 1.94%. The MDA content in the series on H2O2-induced HepG2 cells [6] was found to be 3.945 ± 0.21 nmol/mg prot. In addition, the “DPPH radical scavenging rate” value in series [7] is 25.80% ± 1.82%.
For the compound “LMGPR [Leu-Met-Gly-Pro-Arg, antioxidant peptide identified from yak skin hydrolysate YSP-I, synthesized]”, the “activity of CAT compared with the model group” value with H2O2-induced HepG2 cells [1] is “significantly more improved”. Moreover, the “intracellular IL-8 content compared with the model group” value in the series on H2O2-induced HepG2 cells [2] is “significantly reduced”. In addition, the “activity of SOD compared with the model group” value with H2O2-induced HepG2 cells [4] is given as “significantly more improved”. Also, the MDA content with H2O2-induced HepG2 cells [6] was 5.91 ± 0.27 nmol/mg prot. In addition, the “DPPH radical scavenging rate” value in series [7] was 23.56% ± 2.68%.
Regarding “GFDGD [Gly-Phe-Asp-Gly-Asp, antioxidant peptide identified from yak skin hydrolysate YSP-I, synthesized]”, the “activity of CAT compared with the model group” value in the series on H2O2-induced HepG2 cells [1] was “significantly more improved”. Further, the “intracellular IL-8 content compared with the model group” value in the series on H2O2-induced HepG2 cells [2] was “significantly reduced”. For the same compound, the “activity of SOD compared with the model group” value in the series with H2O2-induced HepG2 cells [4] is on record as “significantly more improved”. In addition, the “hydroxyl radical scavenging rate” value in series [5] is listed as 41.61% ± 1.73%. Further, the MDA content with H2O2-induced HepG2 cells [6] came out at 5.55 ± 0.16 nmol/mg prot.
Take “GHNGLDGL [Gly-His-Asn-Gly-Leu-Asp-Gly-Leu, antioxidant peptide identified from yak skin hydrolysate YSP-I, synthesized]”: the “activity of CAT compared with the model group” value with H2O2-induced HepG2 cells [1] is reported as “significantly more improved”. In the series with H2O2-induced HepG2 cells [2], the “intracellular IL-8 content compared with the model group” value was “significantly reduced”. The “activity of SOD compared with the model group” value in the series with H2O2-induced HepG2 cells [4] was “significantly more improved”. In addition, the MDA content with H2O2-induced HepG2 cells [6] turned out to be 4.65 ± 0.39 nmol/mg prot.
With “GPAGPQGPR [Gly-Pro-Ala-Gly Pro-Gln-Gly-Pro-Arg, antioxidant peptide identified from yak skin hydrolysate YSP-I, synthesized]”, the “activity of CAT compared with the model group” value in the series on H2O2-induced HepG2 cells [1] is on record as “significantly more improved”. In addition, the “intracellular IL-8 content compared with the model group” value with H2O2-induced HepG2 cells [2] is recorded as “significantly reduced”. In addition, the “activity of SOD compared with the model group” value with H2O2-induced HepG2 cells [4] is “significantly more improved”. Moreover, the MDA content in the series on H2O2-induced HepG2 cells [6] is reported as 5.96 ± 0.30 nmol/mg prot.

For the origin of these results see PMC12249663, “Identification and Screening of Novel Antioxidant Peptides from Yak Skin and Their Protective Effect on H2O2-Induced HepG2 Cells Oxidation” (International Journal of Molecular Sciences, 2025).
